Assay: Weights, CBC, blood chemistry and signs of toxicity, Table S1 sheet PD-2 (infected Aotus, twice a day for seven days)
Type: in vivo, Aotus lemurinus lemurinus
Conditions: oral 10 mg/kg twice a day/7 days, 26047 Female (ITM1)
Protocol: Laboratory bred Aotus lemurinus lemurinus monkeys (0.75–0.89 kg) were maintained as described. […] Blood samples were collected before the treatment started (t = 0), 0.05 h, 0.5 h, 1 h, 2 h, 6 h, 24 h, 48 h, and 6, 12 and 18 days after the first dose from each monkey and processed as described below. Pharmacokinetic parameters were calculated using PKSolver. For efficacy studies, Aotus monkeys were inoculated intravenously with 5×10^6 parasites of the FVO strain of P. falciparum in an approved treatment protocol. […] Parasitaemia was determined by Giemsa-stained thick blood smears prepared daily from the marginal ear vein [41]. Blood samples were collected from each monkey and transferred to tubes containing lithium heparin, centrifuged and both plasma and blood cells were frozen at −80 °C until analysis. Animals received a physical examination and blood chemistry profiles were monitored after treatment as described previously. Any monkey not responding appropriately to treatment was cured of its infection with mefloquine (40 mg kg^−1). […] The day of clearance is defined as the first of three consecutive days in which the thick blood films are parasite negative. The day of recrudescence is the first of three consecutive days of positive thick blood films after a period of clearance. Suppression is defined as a transient decrease in the parasite count post-treatment without clearance.

Nc1nc2c(CN3CC(O)C(CO)C3)c[nH]c2c(=O)[nH]1 (centres unmarked) [BCX4945, 4′-deaza-1′-aza-2′-deoxy-1′-(9-methylene)-Immucillin-G]
Lymphocytes (%) (day 12): 68.4% | Lymphocytes (x 103/ul) (day 12): 11.5 x 103/ul | Mean Corpuscular Hemoglobin (day 12): 28.3 pg | Mean Corpuscular Volume (day 12): 79.5 fL | Mean Hemoglobin Content (day 12): 35.5 g/dL | Mean Platelet Volume (day 12): 9.9 fL | Monocytes (%) (day 12): 10.3% | Monocytes (x 103/ul) (day 12): 1.7 x 103/ul | Platelets (day 12): 338000 µL⁻¹ | Red Cell Distribution Width (day 12): 13.6% | Reticulocytes (day 12): 2.2% | WEIGHT (day 12): 845 g | Blood Urea Nitrogen (day 15): 11.4 mg/dL | Creatine (day 15): 0.638 mg/dL | Erythrocytes (day 15): 4.51e+06 µL⁻¹ | Glutamate Pyruvate Transaminase (day 15): 21.4 U/L | Granulocytes (%) (day 15): 7.5% | Granulocytes (x 103/ul) (day 15): 1 x 103/ul | Hematocrit (day 15): 36.3% | Hemoglobin (day 15): 12.9 g/dL | Leucocytes (day 15): 13100 µL⁻¹ | Lymphocytes (%) (day 15): 81.3% | Lymphocytes (x 103/ul) (day 15): 10.7 x 103/ul | Mean Corpuscular Hemoglobin (day 15): 28.7 pg | Mean Corpuscular Volume (day 15): 80.5 fL | Mean Hemoglobin Content (day 15): 35.6 g/dL | Mean Platelet Volume (day 15): 10.4 fL | Monocytes (x 103/ul) (day 15): 1.5 x 103/ul | Platelets (day 15): 164000 µL⁻¹ | Red Cell Distribution Width (day 15): 17.5% | Reticulocytes (day 15): 4.2% | WEIGHT (day 15): 839 g | Blood Urea Nitrogen (day 18): 16.4 mg/dL | Creatine (day 18): 0.5 mg/dL | Erythrocytes (day 18): 4.39e+06 µL⁻¹ | Glutamate Pyruvate Transaminase (day 18): 15.3 U/L | Granulocytes (%) (day 18): 7.8% | Granulocytes (x 103/ul) (day 18): 1.7 x 103/ul | Hematocrit (day 18): 35.7% | Hemoglobin (day 18): 12.3 g/dL | Leucocytes (day 18): 21900 µL⁻¹ | Lymphocytes (%) (day 18): 82.9% | Lymphocytes (x 103/ul) (day 18): 18.2 x 103/ul | Mean Corpuscular Hemoglobin (day 18): 28 pg | Mean Corpuscular Volume (day 18): 81.2 fL | Mean Hemoglobin Content (day 18): 34.4 g/dL | Mean Platelet Volume (day 18): 12.4 fL | Monocytes (%) (day 18): 9.3% | Monocytes (x 103/ul) (day 18): 2 x 103/ul | Platelets (day 18): 115000 µL⁻¹ | Red Cell Distribution Width (day 18): 16.7% | Reticulocytes (day 18): 3.1% | WEIGHT (day 18): 860 g | Erythrocytes (day 25): 4.98e+06 µL⁻¹ | Granulocytes (%) (day 25): 4.7% | Granulocytes (x 103/ul) (day 25): 0.8 x 103/ul | Hematocrit (day 25): 40.8% | Hemoglobin (day 25): 13.7 g/dL | Leucocytes (day 25): 16900 µL⁻¹ | Lymphocytes (%) (day 25): 90% | Lymphocytes (x 103/ul) (day 25): 15.2 x 103/ul | Mean Corpuscular Hemoglobin (day 25): 27.4 pg | Mean Corpuscular Volume (day 25): 81.8 fL | Mean Hemoglobin Content (day 25): 33.6 g/dL | Mean Platelet Volume (day 25): 11.8 fL | Monocytes (%) (day 25): 5.3% | Monocytes (x 103/ul) (day 25): 0.9 x 103/ul | Platelets (day 25): 158000 µL⁻¹ | Red Cell Distribution Width (day 25): 17.4% | Reticulocytes (day 25): 1.9% | WEIGHT (day 25): 843 g | Blood Urea Nitrogen (day -10): 15.35 mg/dL | Creatine (day -10): 0.531 mg/dL | Erythrocytes (day -10): 6.12e+06 µL⁻¹ | Glutamate Pyruvate Transaminase (day -10): 20.1 U/L | Granulocytes (%) (day -10): 6.5% | Granulocytes (x 103/ul) (day -10): 1.5 x 103/ul | Hematocrit (day -10): 47.5% | Hemoglobin (day -10): 17.3 g/dL | Leucocytes (day -10): 23800 µL⁻¹ | Lymphocytes (%) (day -10): 87.8% | Lymphocytes (x 103/ul) (day -10): 20.9 x 103/ul | Mean Corpuscular Hemoglobin (day -10): 28.3 pg | Mean Corpuscular Volume (day -10): 77.6 fL | Mean Hemoglobin Content (day -10): 36.4 g/dL | Mean Platelet Volume (day -10): 11 fL | Monocytes (%) (day -10): 5.7% | Monocytes (x 103/ul) (day -10): 1.4 x 103/ul | Platelets (day -10): 266000 µL⁻¹ | Red Cell Distribution Width (day -10): 11% | Reticulocytes (day -10): 2.1% | WEIGHT (day -10): 824 g
